According to PubChem BioAssay (NCI):
Several values for one entry are separate records, joined by “and”; a condition that tells them apart may be missing. Identical values can stand only once.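 48-hour exposure; five concentrations; linearly interpolated endpoints. GI50 marks 50% less growth. At the TGI there is no net growth.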

Tests used:
Assay in all cases: NCI tumour cell line growth inhibition, 48 h
786-0 renal = system: 786-0 renal
ACHN renal = system: ACHN renal
BT-549 breast = system: BT-549 breast
DU-145 prostate = system: DU-145 prostate
HOP-18 NSCLC = system: HOP-18 NSCLC
HS 578T breast = system: HS 578T breast
M14 melanoma = system: M14 melanoma
MDA-MB-435 = system: MDA-MB-435
MDA-N = system: MDA-N
P388/ADR leukemia = system: P388/ADR leukemia
PC-3 prostate = system: PC-3 prostate
SR leukemia = system: SR leukemia
T-47D breast = system: T-47D breast
TK-10 renal = system: TK-10 renal

COc1cc2cc(c1Cl)N(C)C(=O)C[C@H](OC(=O)[C@H](C)N(C)C(C)=O)[C@]1(C)O[C@H]1[C@H](C)[C@@H]1C[C@@](O)(NC(=O)O1)[C@H](OC)C=C/C=C(\C)C2
GI50 (786-0 renal): 0.0019 µM | GI50 (ACHN renal): 0.00211 µM | TGI (ACHN renal): 0.0595 µM | GI50 (BT-549 breast): 0.000623 µM | GI50 (DU-145 prostate): 0.0553 µM | TGI (HOP-18 NSCLC): > 95.6 µM and 239 µM | GI50 (HS 578T breast): 0.000745 µM | GI50 (M14 melanoma): 0.00128 µM | GI50 (MDA-MB-435): 0.00168 µM | TGI (MDA-MB-435): 0.00755 µM and < 0.0146 µM | TGI (MDA-N): 0.0709 µM and 0.0274 µM | TGI (P388/ADR leukemia): 1.87 µM and 9.07 µM | GI50 (PC-3 prostate): 0.0371 µM | GI50 (SR leukemia): 0.000336 µM | TGI (SR leukemia): 0.0106 µM | GI50 (T-47D breast): 0.0142 µM | TGI (T-47D breast): 0.0714 µM | GI50 (TK-10 renal): 0.0144 µM | TGI (TK-10 renal): 0.0804 µM
